{
  "source": "patent US11419806B2",
  "about": "“Prebiotic oral care methods using a saccharide” (Colgate-Palmolive Company, priority 2013, dated 2022)",
  "assay_in_all_cases": "Twenty-four hour biofilm growth (crystal violet)",
  "assay_type_in_all_cases": "cell-based",
  "key": {"T. forsythia": {"tested_on": "T. forsythia", "procedure": "(§1) The increase in biofilm formation of the tested bacteria in response to selected saccharides (D-turanose, D-lactitol, myo-inositol, and N-acetyl-D-mannosamine) was investigated by setting up biofilm growth assays in a nutritionally rich medium (brain heart infusion broth (BHI), Oxoid), over 24 hours. Late exponential growth phase liquid cultures were prepared by transferring the respective bacterium from blood agar plates to BHI and overnight incubation at 37° C. in an anaerobic atmosphere for A. viscosus, V. parvula, P. gingivalis, P. intermedia, T. forsythia, A. naeslundii, and C. sputigena, and in a 5% CO2 environment for S. salivarius, S. sanguinis, S. mitis, A. actinomycetemcomitans, S. mutans, and S. gordonii. Overnight cultures were transferred to BHI and adjusted to a concentration of 1×10^7 CFU/ml by measuring the optical density at 600 nm (OD600) (BioRad SmartSpec 3000). For each strain, 200 μl of the bacterial suspension was added to a 96-well plate containing 20 μl of the respective saccharides. Final concentrations of the saccharides were set to 5, 10, 20 and 25 μmol/ml. […] Additionally, for each bacterium tested, a background control, to correct for background staining, was added. This background control contained the bacterium tested and 0.03 weight % chlorhexidine, as an antiseptic. Plates were incubated as previously described. After 24 hrs the supernatant was removed from the wells of the plates. The wells were washed twice with 1×100 μL PBS (phosphate buffered saline), fixed for 20 minutes with 96% vol. ethanol (96% vol. solution in water) and the biofilm retained at the bottom of the wells was stained with 1 weight % crystal violet (1 weight % solution in water). The bound dye was dissolved with 5% vol. acetic acid (5% vol. solution in water). Quantification of the stained biofilm was performed by measuring the absorbance at 630 nm using a Multiskan Ascent microplate reader (Thermo Scientific).\n(§2) The experiment was carried out on three different days (thus providing 3 biological replicas) and each day the experiment was carried out in quadruple (thus providing 4 technical replicas) for each combination of bacterium with saccharide and for each control. For each day and for each combination, the average (mean) of the values obtained (as detailed above) for the four technical replicas was calculated to provide a single value for each combination on each day. The values shown in Tables 7a, 7b, 8a, 8b, below, are the average (mean) of the three single values obtained for each combination of bacterium with saccharide."}, "P. intermedia": {"tested_on": "P. intermedia", "procedure": "as §1, §2"}, "A. actinomycetemcomitans": {"tested_on": "A. actinomycetemcomitans", "procedure": "as §1, §2"}, "C. sputigena": {"tested_on": "C. sputigena", "procedure": "as §1, §2"}, "A. viscosus": {"tested_on": "A. viscosus", "procedure": "as §1, §2"}, "V. parvula": {"tested_on": "V. parvula", "procedure": "as §1, §2"}, "S. mutans": {"tested_on": "S. mutans", "conditions": "S mutans", "procedure": "as §1, §2"}, "A. naeslundii": {"tested_on": "A. naeslundii", "procedure": "as §1, §2"}, "S. gordonii": {"tested_on": "S. gordonii", "procedure": "as §1, §2"}, "P. gingivalis": {"tested_on": "P. gingivalis", "procedure": "as §1, §2"}},
  "data": [
    {"smiles": "O[C@H]1[C@H](O)[C@@H](O)[C@H](O)[C@@H](O)[C@H]1O", "note": "[Myo-Inositol, (1R,2R,3S,4S,5R,6S)-cyclohexane-1,2,3,4,5,6-hexol]", "values": [
      {"measurement": "biofilm growth: OD 630 nm at 24 hrs divided by OD of control (control = 1)", "setting": "T. forsythia; 5 μmol/ml", "result": 0.6841},
      {"measurement": "biofilm growth: OD 630 nm at 24 hrs divided by OD of control (control = 1)", "setting": "T. forsythia; 10 μmol/ml", "result": 0.6396},
      {"measurement": "biofilm growth: OD 630 nm at 24 hrs divided by OD of control (control = 1)", "setting": "T. forsythia; 20 μmol/ml", "result": 0.7688},
      {"measurement": "biofilm growth: OD 630 nm at 24 hrs divided by OD of control (control = 1)", "setting": "T. forsythia; 25 μmol/ml", "result": 0.6940},
      {"measurement": "biofilm growth: OD 630 nm at 24 hrs divided by OD of control (control = 1)", "setting": "P. intermedia; 5 μmol/ml", "result": 1.1539},
      {"measurement": "biofilm growth: OD 630 nm at 24 hrs divided by OD of control (control = 1)", "setting": "P. intermedia; 10 μmol/ml", "result": 1.2210},
      {"measurement": "biofilm growth: OD 630 nm at 24 hrs divided by OD of control (control = 1)", "setting": "P. intermedia; 20 μmol/ml", "result": 1.1660},
      {"measurement": "biofilm growth: OD 630 nm at 24 hrs divided by OD of control (control = 1)", "setting": "P. intermedia; 25 μmol/ml", "result": 1.0417},
      {"measurement": "biofilm growth: OD 630 nm at 24 hrs divided by OD of control (control = 1)", "setting": "A. actinomycetemcomitans; 5 μmol/ml", "result": 0.8323},
      {"measurement": "biofilm growth: OD 630 nm at 24 hrs divided by OD of control (control = 1)", "setting": "A. actinomycetemcomitans; 10 μmol/ml", "result": 0.8378},
      {"measurement": "biofilm growth: OD 630 nm at 24 hrs divided by OD of control (control = 1)", "setting": "A. actinomycetemcomitans; 20 μmol/ml", "result": 0.9661},
      {"measurement": "biofilm growth: OD 630 nm at 24 hrs divided by OD of control (control = 1)", "setting": "A. actinomycetemcomitans; 25 μmol/ml", "result": 0.9898},
      {"measurement": "biofilm growth: OD 630 nm at 24 hrs divided by OD of control (control = 1)", "setting": "C. sputigena; 5 μmol/ml", "result": 0.9276},
      {"measurement": "biofilm growth: OD 630 nm at 24 hrs divided by OD of control (control = 1)", "setting": "C. sputigena; 10 μmol/ml", "result": 0.9522},
      {"measurement": "biofilm growth: OD 630 nm at 24 hrs divided by OD of control (control = 1)", "setting": "C. sputigena; 20 μmol/ml", "result": 0.9758},
      {"measurement": "biofilm growth: OD 630 nm at 24 hrs divided by OD of control (control = 1)", "setting": "C. sputigena; 25 μmol/ml", "result": 0.8233},
      {"measurement": "biofilm growth: OD 630 nm at 24 hrs divided by OD of control (control = 1)", "setting": "A. viscosus; 5 μmol/ml", "result": 0.8136},
      {"measurement": "biofilm growth: OD 630 nm at 24 hrs divided by OD of control (control = 1)", "setting": "A. viscosus; 10 μmol/ml", "result": 0.8735},
      {"measurement": "biofilm growth: OD 630 nm at 24 hrs divided by OD of control (control = 1)", "setting": "A. viscosus; 20 μmol/ml", "result": 0.8117},
      {"measurement": "biofilm growth: OD 630 nm at 24 hrs divided by OD of control (control = 1)", "setting": "A. viscosus; 25 μmol/ml", "result": 0.8167},
      {"measurement": "biofilm growth: OD 630 nm at 24 hrs divided by OD of control (control = 1)", "setting": "V. parvula; 5 μmol/ml", "result": 1.0021},
      {"measurement": "biofilm growth: OD 630 nm at 24 hrs divided by OD of control (control = 1)", "setting": "V. parvula; 10 μmol/ml", "result": 1.1121},
      {"measurement": "biofilm growth: OD 630 nm at 24 hrs divided by OD of control (control = 1)", "setting": "V. parvula; 20 μmol/ml", "result": 1.0036},
      {"measurement": "biofilm growth: OD 630 nm at 24 hrs divided by OD of control (control = 1)", "setting": "V. parvula; 25 μmol/ml", "result": 1.0399},
      {"measurement": "biofilm growth: OD 630 nm at 24 hrs divided by OD of control (control = 1)", "setting": "S. mutans; 5 μmol/ml", "result": 0.9177},
      {"measurement": "biofilm growth: OD 630 nm at 24 hrs divided by OD of control (control = 1)", "setting": "S. mutans; 10 μmol/ml", "result": 1.0152},
      {"measurement": "biofilm growth: OD 630 nm at 24 hrs divided by OD of control (control = 1)", "setting": "S. mutans; 20 μmol/ml", "result": 1.1995},
      {"measurement": "biofilm growth: OD 630 nm at 24 hrs divided by OD of control (control = 1)", "setting": "S. mutans; 25 μmol/ml", "result": 1.4107},
      {"measurement": "biofilm growth: OD 630 nm at 24 hrs divided by OD of control (control = 1)", "setting": "A. naeslundii; 5 μmol/ml", "result": 1.0309},
      {"measurement": "biofilm growth: OD 630 nm at 24 hrs divided by OD of control (control = 1)", "setting": "A. naeslundii; 10 μmol/ml", "result": 1.0353},
      {"measurement": "biofilm growth: OD 630 nm at 24 hrs divided by OD of control (control = 1)", "setting": "A. naeslundii; 20 μmol/ml", "result": 1.0270},
      {"measurement": "biofilm growth: OD 630 nm at 24 hrs divided by OD of control (control = 1)", "setting": "A. naeslundii; 25 μmol/ml", "result": 1.0456},
      {"measurement": "biofilm growth: OD 630 nm at 24 hrs divided by OD of control (control = 1)", "setting": "S. gordonii; 5 μmol/ml", "result": 0.6178},
      {"measurement": "biofilm growth: OD 630 nm at 24 hrs divided by OD of control (control = 1)", "setting": "S. gordonii; 10 μmol/ml", "result": 0.6384},
      {"measurement": "biofilm growth: OD 630 nm at 24 hrs divided by OD of control (control = 1)", "setting": "S. gordonii; 20 μmol/ml", "result": 0.6650},
      {"measurement": "biofilm growth: OD 630 nm at 24 hrs divided by OD of control (control = 1)", "setting": "S. gordonii; 25 μmol/ml", "result": 0.6716},
      {"measurement": "biofilm growth: OD 630 nm at 24 hrs divided by OD of control (control = 1)", "setting": "P. gingivalis; 5 μmol/ml", "result": 0.9325},
      {"measurement": "biofilm growth: OD 630 nm at 24 hrs divided by OD of control (control = 1)", "setting": "P. gingivalis; 10 μmol/ml", "result": 0.9657},
      {"measurement": "biofilm growth: OD 630 nm at 24 hrs divided by OD of control (control = 1)", "setting": "P. gingivalis; 20 μmol/ml", "result": 0.9448},
      {"measurement": "biofilm growth: OD 630 nm at 24 hrs divided by OD of control (control = 1)", "setting": "P. gingivalis; 25 μmol/ml", "result": 1.0290}
    ]}
  ]
}
